Experimental data published in patent EP0478545B1, “1,2,4-BENZOTRIAZINE OXIDES AS RADIOSENSITIZERS AND SELECTIVE CYTOTOXIC AGENTS” (SRI INTERNATIONAL, priority 1989, dated 1991).
≈ marks a conversion by molar mass, not a printed value. Where a name gives a salt, the structure may show the parent alone.

Legend:
Determination of LD50 = conditions: mouse, in vivo; Balb/c female mice 3-5 months of age; ip (or iv) injection in physiological saline
Protocol: LD50 is determined in BALB/c female mice (weighing 20-25 g) following intraperitoneal (ip) injection, unless the compound tested has low lipophilicity and is very soluble, wherein intravenous (iv) administration is used. LD50 values at 1, 2, 5, and 60 days are determined by administering graded doses of the drug dissolved in physiological saline immediately prior to injection.

[1] = Octanol-water partition coefficient (method of Fujita et al.); conditions: pH 7.4
physchem [2] = conditions: pH 7.4
physchem [3] = assay: physchem

| Compound | LD50 (Determination of LD50) | solubility (Solubility) | logP ([1]; octanol/water) | logP [1] | logP (physchem [2]) | solubility (physchem [3]) |
| --- | --- | --- | --- | --- | --- | --- |
| Nc1n[n+]([O-])c2cc([N+](=O)[O-])ccc2[n+]1[O-] [Compound 14, 7-nitro-3-amino-1,2,4-benzotriazine 1,4-dioxide] | 1000 µmol/kg | 2 mM (≈ 446 µg/mL) | -0.97 | – | – | – |
| CCN(CC)CCNc1n[n+]([O-])c2cc([N+](=O)[O-])ccc2[n+]1[O-] [Compound 21, 7-nitro-3-(2-N,N-diethylaminoethylamino)-1,2,4-benzotriazine 1,4-dioxide hydrochloride] | – | – | – | -0.2 | – | – |
| Nc1n[n+]([O-])c2ccccc2[n+]1[O-] [Compound 22] | 500 µmol/kg | – | – | – | -0.32 | 13.5 mM (≈ 2410 µg/mL) |
